Assay results published in PubChem BioAssay AID1552 (Sanford-Burnham Center for Chemical Genomics, 2009).
Calls of active or inactive are those of the source. The rule behind the calls is not given here.

biological target: Ubiquitin-conjugating enzyme E2 N (Homo sapiens) (UniProt P61088); test: NMR detection of UBE2N ligand binding – biophysical, purified protein (AID 1552); conditions: NMR binding to purified UBE2N
Sequence (P61088 whole entry, looked up): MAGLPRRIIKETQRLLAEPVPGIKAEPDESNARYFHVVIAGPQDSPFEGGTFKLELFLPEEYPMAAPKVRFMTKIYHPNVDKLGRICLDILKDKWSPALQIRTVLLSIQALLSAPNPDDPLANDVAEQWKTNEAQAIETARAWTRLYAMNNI

Structure (SMILES) | Kd
CC1(C)CC(=O)c2sc(N)nc2C1 | > 4 mM (inactive)
COC(=O)[C@@]1(C)CCC[C@]2(C)c3ccc(O)c(C(C)C)c3CCC12 (stereo partly drawn) | > 4 mM (inactive)
OCc1ccc2c(c1)CCO2 | > 4 mM (inactive)
O=C1CSC2=NCCCN12 | > 4 mM (inactive)
CCc1c(C(=O)Nc2ccncc2)csc1C | > 4 mM (inactive)
CC(O)(C(=O)O)c1ccccc1 (stereo not drawn) | > 4 mM (inactive)
Cc1ccc(N2C(=O)CCC2=O)cc1 | > 4 mM (inactive)
O=C(O)c1ccc(-c2cnco2)cc1 | > 4 mM (inactive)
c1ccn(Cc2ccncc2)c1 | > 4 mM (inactive)
Cc1n[nH]c(C)c1-c1ccccc1C(=O)O | > 4 mM (inactive)
Cc1cc(C(=O)Nc2ccc3c(c2)OCO3)cs1 | > 4 mM (inactive)
Cc1nn(-c2ccccc2)nc1C(N)=O | > 4 mM (inactive)
NC(c1ccccc1)c1ccccn1 (stereo not drawn) | > 4 mM (inactive)
COc1cc(O)c(C(=O)c2ccccc2)cc1O | > 4 mM (inactive)
OCc1ccc(-n2ccnc2)cc1 | > 4 mM (inactive)
Cc1nn(-c2ccccc2)c(Cl)c1C(N)=O | > 4 mM (inactive)
CC(=O)OCC(=O)[C@@]1(O)CCC2C3CC[C@@H]4C[C@H](OC(C)=O)CC[C@]4(C)C3C(=O)C[C@@]21C (stereo partly drawn) | > 4 mM (inactive)
O=S1(=O)CCC(NC(=S)Nc2ccc(O)cc2)C1 (stereo not drawn) | > 4 mM (inactive)
Cc1cc(C(=O)Nc2ccc3c(c2)OCCO3)c(C)o1 | > 4 mM (inactive)
O=C(c1cc(-c2ccccc2)on1)N1CCCC1 | > 4 mM (inactive)

Structure (SMILES) | Kd
Cc1cc(C)n(-c2nc(N)cc(=O)[nH]2)n1 | > 4 mM (inactive)
Cc1nc2cc(Cl)ccc2n1CCO | > 4 mM (inactive)
O=C(NC1CCS(=O)(=O)C1)c1ccccc1 (stereo not drawn) | > 4 mM (inactive)
NC(=S)NC(=O)CN1C(=O)c2ccccc2C1=O | > 4 mM (inactive)
O=C(OCc1c(Cl)cccc1Cl)c1cnccn1 | > 4 mM (inactive)
CC[C@]12CCCN3CCc4c(n(c5ccccc45)[C@](O)(C(=O)OC)C1)[C@@H]32 | > 4 mM (inactive)
O=c1cnnc(NCc2ccc(F)cc2)[nH]1 | > 4 mM (inactive)
O=C(O)C1CC2CC1CCC2O (stereo not drawn) | > 4 mM (inactive)
O=C(CCc1ccc(O)cc1)c1c(O)cc(O)cc1O | > 4 mM (inactive)
CSc1n[nH]c(NCc2cccs2)n1 | > 4 mM (inactive)
COc1ccccc1NC(=O)CCC(=O)O | > 4 mM (inactive)
CC(=O)Nc1cc(C(F)(F)F)ccc1N1CCOCC1 | > 4 mM (inactive)
CCC1(CC)C(=O)N=C(N)NC1=O | > 4 mM (inactive)
CN(C(=O)c1cc2cccnc2n(C)c1=O)c1ccccc1 | > 4 mM (inactive)
O=C1CNC(=O)N1Cc1ccc(F)cc1 | > 4 mM (inactive)
O=C(Nc1ccccc1CO)c1ccccc1F | > 4 mM (inactive)
CN(C)C(=O)Nc1ccc2c(c1)nnn2C | > 4 mM (inactive)
O=C(O[C@@H]1Cc2c(O)cc(O)cc2O[C@@H]1c1cc(O)c(O)c(O)c1-c1c([C@H]2Oc3cc(O)cc(O)c3C[C@H]2O)cc(O)c(O)c1O)c1cc(O)c(O)c(O)c1 | > 4 mM (inactive)
O=C1c2ccccc2C(=O)N1/N=C/c1ccc[nH]1 | > 4 mM (inactive)
O=c1c(Cl)c(NCCO)ncn1-c1ccccc1 | > 4 mM (inactive)

Structure (SMILES) | Kd
COC(=O)Cn1c2ccccc2c2nc(C)sc21 | > 4 mM (inactive)
Cc1ccnc(NS(=O)(=O)c2ccccc2)n1 | > 4 mM (inactive)
CN1CCN(S(=O)(=O)c2ccc(=O)[nH]c2)CC1 | > 4 mM (inactive)
CC(C)(C)NC(=O)CN1C(=O)c2ccccc2S1(=O)=O | > 4 mM (inactive)
O=c1[nH]c(CN2CCN(CCO)CC2)nc2ccccc12 | > 4 mM (inactive)
NC(=O)c1ccc(C(N)=O)cc1 | > 4 mM (inactive)
COc1cc(OC)c2c(=O)c(OC)c(-c3ccc(OC)c(OC)c3)oc2c1 | > 4 mM (inactive)
OCc1csc(-c2cccs2)n1 | > 4 mM (inactive)
CC(C)=CC(=O)Nc1ccccc1Br | > 4 mM (inactive)
O=C(NCC1CCNCC1)c1ccncc1 | > 4 mM (inactive)
COC(=O)[C@]1(C)CC[C@]2(C)CC[C@]3(C)C4=CCc5c(cc(O)c(O)c5C)[C@]4(C)CC[C@@]3(C)C2C1 (stereo partly drawn) | > 4 mM (inactive)
O=C(O)Cn1cnc2ccccc2c1=O | > 4 mM (inactive)
O=C(O)C1CSC(c2cc3ccccc3nc2Cl)N1 (stereo not drawn) | > 4 mM (inactive)
CCOC(=O)c1csc(C2COc3ccccc3O2)n1 (stereo not drawn) | > 4 mM (inactive)
O=C(Nc1ccc2c(c1)OCO2)c1cccs1 | > 4 mM (inactive)
O=C1C=CC2=C3c4cc(O)c(O)cc4CC3(O)COC2=C1O (stereo not drawn) | > 4 mM (inactive)
CCCn1c(S(=O)(=O)O)nc2ccccc21 | > 4 mM (inactive)
c1ccc2[nH]c(CCn3cncn3)nc2c1 | > 4 mM (inactive)
